This is an account of results in publication PMC6815936, “A Pan-Cyclophilin Inhibitor, CRV431, Decreases Fibrosis and Tumor Development in Chronic Liver Disease Models” (The Journal of Pharmacology and Experimental Therapeutics, 2019).

This assay relates to CCl4-induced liver fibrosis in C57BL/6 mice. Briefly: Carbon tetrachloride mouse model of liver fibrosis. The format is in vivo. To be noted: OCA 10 mg/kg per day; combination 50 and 10 mg/kg per day, oral, 6 weeks. On the procedure:
Carbon tetrachloride (CCl4)–induced liver fibrosis was conducted in C57BL/6J male mice starting at 7 weeks of age. Mice were injected intraperitoneally twice per week with 0.5–0.75 ml/kg CCL4 (289116; Sigma-Aldrich) and corn oil (0.05 ml total dose per mouse) for 6 weeks. CRV431, obeticholic acid (OCA, HY-12222; MedChemExpress), and vehicle were administered by daily oral gavage for the entire duration of the study. CRV431 and OCA were dissolved in a self-microemulsifying drug vehicle ([Trepanier et al., 2018]), and then diluted with PBS. CRV431 was administered at 50 mg/kg per day, and OCA was administered at 10 mg/kg per day.
Blood and livers were collected at the end of the NASH and CCl4 studies. In some studies, serum or plasma was isolated from freshly-collected blood, whereas in other studies blood was frozen for later analysis of CRV431 concentration. Livers were immersion-fixed in zinc-formalin and paraffin-embedded for histologic processing. Liver sections were stained with hematoxylin and eosin for assessment of inflammation, ballooning, and steatosis, and with sirius red for assessment of collagen I and III (fibrosis). Sirius red staining was quantified by blinded analysis in one section per liver using ImageJ software. […]

As to `CC[C@H]1[C@@H](O)[C@@H]2[C@H](CC[C@]3(C)[C@@H]([C@H](C)CCC(=O)O)CC[C@@H]23)[C@@]2(C)CC[C@@H](O)C[C@@H]12` [OCA, obeticholic acid, reference compound], the “effect on liver fibrosis, sirius red staining (in words)” value is listed as “no statistically significant effect”.
